The target of data set [1] is T1, Muscarinic acetylcholine receptor M1 (Rattus norvegicus, UniProt P08482).
T1 sequence (P08482 whole entry): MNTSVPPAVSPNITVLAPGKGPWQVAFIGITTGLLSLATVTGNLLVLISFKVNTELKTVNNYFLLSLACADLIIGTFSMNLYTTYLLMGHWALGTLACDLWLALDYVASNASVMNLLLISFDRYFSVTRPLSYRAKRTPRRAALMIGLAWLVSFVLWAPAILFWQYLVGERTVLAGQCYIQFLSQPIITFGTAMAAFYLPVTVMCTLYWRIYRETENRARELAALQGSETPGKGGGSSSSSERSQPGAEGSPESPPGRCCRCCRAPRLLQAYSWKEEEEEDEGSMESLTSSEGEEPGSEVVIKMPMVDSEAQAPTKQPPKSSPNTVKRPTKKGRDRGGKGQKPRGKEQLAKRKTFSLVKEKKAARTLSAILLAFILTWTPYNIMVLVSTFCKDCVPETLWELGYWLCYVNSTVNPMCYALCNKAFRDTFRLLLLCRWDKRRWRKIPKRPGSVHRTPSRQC
The data set is described as follows: Displacement of [3H]pirenzepine from cerebral Muscarinic acetylcholine receptor M1. In general terms: Loss of bound radioactivity is the signal in a displacement assay; it reports binding, not function.

The nature of data set [2]: (§1) Lethal dose in mice after oral administration. It is filed as toxicity, organism-based. As to conditions: mouse, in vivo.
In data set [3] the test system is Mus musculus. The data set can be described thus: Percent inhibition of the number of pirenzepine-induced rotations in mice, on oral administration (3 mg/kg) 4 hr before the test. It is filed as functional.
Data set [4] in a line: as §1. In kind it is toxicity. The settings on record: mouse, in vivo.
Data set [5] concerns Mus musculus. The data set is described as follows: Percent inhibition of the number of pirenzepine-induced rotations in mice, on orally administration (0.3 mg/kg) 4 hr before the test. It is filed as functional.
For data set [6], the species on record is Mus musculus. The data set is described as follows: Effective dose required to antagonize rotations induced in mice by intrastriatal injection of pirenzepine. It is filed as functional.
Data set [7] has as its target T2, Muscarinic acetylcholine receptor M1 (Homo sapiens, UniProt P11229).
T2 sequence (P11229 whole entry): T1 sequence (P08482 whole entry) with V5A, S254T, S309P, K320R, G337A, V413I
The data set can be described thus: Compound was tested for its affinity for muscarinic M1 receptor.

The species entered for data set [8] is Rattus norvegicus. The data set can be described thus: Compound was tested for inhibitory concentration required for the K+ release of [3H]- GABA from rat striatal slices and reduced at 0.5 and 1 uM. In kind it is functional.
Data set [9] is filed under the species Mus musculus. The data set can be described thus: Effective dose required to antagonize scopolamine-induced deficit in passive avoidance learning. It is filed as functional.
For data set [10], the system named is Mus musculus. The data set is described as follows: Compound was evaluated for toxicity up to 300 mg/kg; NT - No Toxicity. It is filed as functional, organism-based. Further details: dose 300 mg/kg.
In data set [11] the test system is Rattus norvegicus. The data set is described as follows: Effective dose required to potentiate haloperidol induced catalepsy in rats (p.o.). In kind it is functional. The settings on record: po.
The species entered for data set [12] is Mus musculus. The data set can be described thus: Compound was tested for the ability to stimulate diacylglycerol formation antagonized by atropine. In kind it is functional, organism-based.
The species entered for data set [13] is Mus musculus. The data set can be described thus: Effective dose required to antagonize pirenzepine-induced deficit in passive avoidance learning. In kind it is functional.
For data set [14], the system named is Mus musculus. The data set is described as follows: Percent inhibition of the number of pirenzepine-induced rotations in mice, on oral administration (0.3 mg/kg) 4 hr before the test. In kind it is functional.
Data set [15] has as its system Mus musculus. The data set can be described thus: Percent inhibition of the number of pirenzepine-induced rotations in mice, on oral administration(0.3 mg/kg) 4 hr before the test; Inactive. In kind it is functional, organism-based.
In data set [16] the test system is Mus musculus. The data set is described as follows: Percent inhibition of the number of pirenzepine-induced rotations in mice, on oral administration (3 mg/kg) 4 hr before the test; Inactive. It is filed as functional, organism-based.

The IC50 is the concentration that gives 50% inhibition. A low value points to greater potency in that assay. In general, LD50 refers to the dose at which mortality reaches 50%. Read a low LD50 as a more toxic substance. For orientation: Inhibition means the relative decrease from the control value, in per cent. For orientation: ED50 means the midpoint of the dose-response relation. In general, Ki refers to a measure of affinity in units of concentration, obtained from inhibition or displacement. Read a low Ki as tighter binding.

Structures are written as SMILES. Substitutions are numbered along the chain they refer to. The source made the active and inactive calls. No cut-off for these calls is given here.

On to `N#Cc1cc(-c2ccccc2)nnc1NCCN1CCOCC1` [BAZINAPRINE], for which the 50% inhibitory concentration (IC50) in data set [1] amounted to 60000 nM. Consider `Cc1cc(C2CCCCC2)nnc1NCCN1CCOCC1`, for which, in [1], the IC50 came to 6000 nM. Same read-out and setting: under `Cc1cc(-c2ccccc2)nnc1NCCN1CCOCC1` [MINAPRINE] stands 17000 nM. The compound `CCN(CC)C(C)(C)CNc1cc(-c2ccccc2)c(CC(C)C)nn1` displayed a median lethal dose (LD50) in data set [2] of 250 mg/kg. Moreover, the concentration for half-maximal inhibition (IC50) in data set [1] worked out at 20 nM.

Take `Cc1cc(-c2ccccc2)nnc1NCCN1CCC(O)CC1`: the IC50 in [1] was greater than 100000 nM. `c1ccc2c(c1)CCCc1cc(NCCN3CCOCC3)nnc1-2` returned an IC50 in data set [1] of 370 nM.

Turning to `CCN(CC)C(C)(C)CNc1cc(-c2ccccc2)c(-c2ccccc2)nn1`, the Inhibition in data set [3] was found to be 113%; in data set [5] it was 87%. The compound also registered an LD50 in data set [4] of 250 mg/kg. This compound also had a 50% inhibitory concentration (IC50) in data set [1] of 40 nM. `c1ccc(Cc2cc(-c3ccccc3)nnc2NCCN2CCOCC2)cc1`: the IC50 in [1] was 4600 nM. `Cc1cc(NCCN(C)C)ccc1-c1ccccc1` gave an IC50 in data set [1] of 140 nM. Against the preceding compound, the IC50 is about 33-fold lower. In the case of `CCCc1cc(NCC(C)(C)N(CC)CC)nnc1-c1ccccc1`, the 50% effective dose (ED50) in [6] was 0.12 mg/kg; in data set [9], 0.25 mg/kg; in data set [11], 0.1 mg/kg; in data set [13], 0.027 mg/kg. Further, the inhibitory constant (Ki) in [7] is 112 nM. Moreover, the IC50 in data set [8] is 10000 nM; in data set [12] it was 50000 nM; in data set [1], 110 nM. In [10], the outcome was inactive. Besides, the Inhibition in data set [3] was 78%; in [14], 51%. As to `CCN(CC)C(C)(C)CNc1cc(-c2ccccc2)c(C)nn1`, the Inhibition in [3] is 85%; in [14], 65%. The compound also registered a 50% inhibitory concentration (IC50) in data set [1] of 180 nM.

In data set [1], `O=C(O)c1cc(-c2ccccc2)nnc1NCCN1CCOCC1` gave an IC50 greater than 100000 nM. The compound `Cc1cc(-c2ccccc2)nnc1NCCN(C)C` showed a concentration for half-maximal inhibition (IC50) in data set [1] of 230 nM.

`Cc1cc(-c2ccc3ccccc3c2)nnc1NCCN1CCOCC1` returned a half-inhibitory concentration (IC50) in data set [1] of 7500 nM. Compared with the last compound, the IC50 is about 33-fold higher. With `c1ccc(-c2cc(-c3ccccc3)c(NCCN3CCOCC3)nn2)cc1`, in data set [1], the IC50 is 600 nM. For the compound `c1ccc(-c2ccc(NCCN3CCOCC3)nn2)cc1`, in data set [1], the IC50 stood at 12000 nM.

In data set [1], `CCCc1nnc(NCC(C)(C)N(CC)CC)cc1-c1ccccc1` registered an IC50 of 50 nM. On the same count and under the same terms, under `CCCc1cc(NC2CCCN2CC)nnc1-c1ccccc1` (single isomer, unassigned; (-)) stands 10 nM. For `Cc1c(NCCN2CCOCC2)nnc(-c2ccccc2)c1C`, the concentration for half-maximal inhibition (IC50) in data set [1] is 700 nM.

Regarding `CCN(CC)C(C)(C)CNc1cc(C)c(-c2ccccc2O)nn1`, in data set [1], the IC50 worked out at 240 nM. For the compound `Cc1cc(-c2cccs2)nnc1NCCN1CCOCC1`, in [1], the IC50 worked out at 4000 nM. Compared with the last compound, the IC50 is about 17-fold higher. The same measure, in the same setting: under `CCCc1cc(NC2CCCN2CC)nnc1-c1ccccc1` (racemic) stands 30 nM; under `c1ccc(-c2cc(NCCN3CCOCC3)nnc2-c2ccccc2)cc1`, 170 nM. In data set [1], `CCN1CCCC1CNc1cc(C)c(-c2ccccc2)nn1` (configuration not stated) displayed a concentration for half-maximal inhibition (IC50) of 260 nM. As to `CCCc1cc(NC2CCCN2CC)nnc1-c1ccccc1` (single isomer, unassigned; (+)), the IC50 in data set [1] worked out at 60 nM.

As for `CCN1CCCC1CNc1cc(-c2ccccc2)c(C)nn1` (configuration not stated), the inhibition result in data set [15] and in data set [16] was “inactive” in each case. Moreover, the half-maximal inhibitory concentration (IC50) in data set [1] came out at 20 nM. As for `CCc1cc(-c2ccccc2)nnc1NCCN1CCOCC1`, the half-inhibitory concentration (IC50) in [1] came to 1600 nM.

Compound `c1ccc(-c2cc(Cc3ccc4ccccc4c3)c(NCCN3CCOCC3)nn2)cc1` showed an IC50 in [1] of 16000 nM. In the case of `CCN(CC)C(C)(C)CNc1cc(C2CC2)c(-c2ccccc2)nn1`, the IC50 in data set [1] was determined as 400 nM. `CCN1CCCC1CNc1cc(C)c(-c2ccccc2O)nn1` (configuration not stated) displayed a half-maximal inhibitory concentration (IC50) in [1] of 8 nM. The same measure, in the same setting: under `CCN1CCCC1CNc1nnc(-c2ccccc2)cc1C` (configuration not stated) stands 800 nM; under `O=Cc1cc(-c2ccccc2)nnc1NCCN1CCOCC1`, greater than 100000 nM. Take `CCCc1cc(NCC(C)(C)N(CC)CC)nnc1-c1ccccc1O`: in data set [1], the half-maximal inhibitory concentration (IC50) stood at 130 nM. In data set [1], `CCN(CC)C(C)(C)CNc1cc(C)c(-c2ccccc2)nn1` came in with an IC50 of 2300 nM. `Cc1cc(-c2ccccc2)nnc1NCCN1CCOCC1=O`: the half-maximal inhibitory concentration (IC50) in data set [1] was greater than 100000 nM. As for `CCN(CC)CCNc1nnc(-c2ccccc2)cc1C`, the concentration for half-maximal inhibition (IC50) in data set [1] was 240 nM.

Turning to `Cc1cc(NCCCN(C)C)ccc1-c1ccccc1`, the IC50 in data set [1] turned out to be 500 nM. Compared with the last compound, the IC50 is about 2.1-fold higher. On to `CCCc1cc(NCCN2CCOCC2)nnc1-c1ccccc1`, for which the IC50 in data set [1] is 1600 nM. Take `c1ccc2c(c1)CCCc1cc(NCCCN3CCOCC3)nnc1-2`: the IC50 in data set [1] turned out to be 2000 nM.
